# Assay results: patent US20050267182A1, “Urea derivatives as FLT-3 modulators” (Ambit Biosciences Corporation, priority 2003, published 2005)
# What was measured:
# FLT3 = target: T1, FLT3 (Homo sapiens, UniProt P36888); assay: Binding constant (Kd) measurement, phage-displayed kinase competition binding assay; conditions: for Binding Assay: FLT3(DKIN): FLT3(DKIN) construct; for Binding Assay: FLT3(JMminus): FLT3(JMminus) construct
# T1 construct: FLT3(DKIN); made in house
# T1 sequence (P36888 610-943 limits assumed): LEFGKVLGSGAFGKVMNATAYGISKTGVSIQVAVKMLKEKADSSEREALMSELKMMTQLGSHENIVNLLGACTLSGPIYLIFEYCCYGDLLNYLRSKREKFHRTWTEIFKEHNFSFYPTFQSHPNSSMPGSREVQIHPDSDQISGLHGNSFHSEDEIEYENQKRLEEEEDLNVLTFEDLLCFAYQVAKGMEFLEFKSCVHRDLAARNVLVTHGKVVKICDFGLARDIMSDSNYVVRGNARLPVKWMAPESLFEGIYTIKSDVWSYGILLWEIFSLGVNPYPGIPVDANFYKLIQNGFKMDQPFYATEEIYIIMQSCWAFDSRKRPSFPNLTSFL
# Excerpt: Binding Constant (Kd) Measurements for Small-Molecule-Kinase Interactions
# The term “ND” represents non-determined values.
# MV4,11 cells = assay: FLT3 assay using MV4,11 cells (cellular proliferation, MTS); assay type: cell-based, human; conditions: cell assay code CS0001; for IC50: Homo sapiens, MV4-11
# Method: The ability of FLT3 kinase inhibitors to inhibit cellular proliferation was also examined. MV4:11 was a cell line derived from a patient with acute myelogenous leukemia.
# FLT3 Assay Using MV4,11 Cells
# MV4,11 cells were grown in an incubator @ 37° C. in 5% CO2 in Medium 2 (RPMI, 10% FBS, 4 mM glutamine, Penn/Strep). The cells were counted daily and the cell density was kept between 1e5 and 8e5 cells/ml.
# Day One: Enough cells were harvested for experiments to be conducted in 50 ml conical tubes. The harvested cells were spun at 500 g for 5 min at 4° C., the supernatant was then aspirated and the cells were resuspended in the starting volume of 1×PBS. The cells were again spun at 500 g for 5 min at 4° C. and the supernatant again aspirated. The cells were then resuspended in medium 3 (DMEM w/ glut, 10% FBS, Penn/Strep) to a density of 4e5 cells/ml and incubated (37° C. in 5% CO2 O/N.
# Day Two: The cells were counted and enough medium 3 was added to decrease density to 2e5 cells/ml. 50 ul (10,000 cells) was aliquoted into each well of a 96 well optical plate using multichannel pipetman. The compound plate was then set up by aliquoting 3 μl of negative control (DMSO) into column 1 of a 96 well 300 ul polypropylene plate, aliquoting 3 μt of positive control (10 mM AB20121) into column 12 of plate, and aliquoting 3 μl of appropriate compounds from serial dilutions into columns 2-11. To each well, 150 μl of Medium 3 was added and 50 μl of compound/medium mixture from compound plate into rows of optical plate in duplicate. The cells were then incubated @ 37° C. in 5% CO2 for 3 days.
# Day Five: MTS was thawed in a H2O bath. 20 μl of MTS was added to each well of optical plate and the cells were incubated (37° C. in 5% CO2 for 2 hours. The plate was then placed on a plate shaker for 30 seconds on high speed.
Structure (SMILES),Binding Assay: FLT3(DKIN) (FLT3),"Cell Assay: CS0001:IC50 (MV4,11 cells)",Binding Assay: FLT3(JMminus) (FLT3),"IC50 (MV4,11 cells) [µM]"
CC(C)(C)c1cc(NC(=O)Nc2ccc(NC(=O)CCc3ccccc3)cc2)no1 [Compound N96],+ + + +,+ + + +,,
CC(C)(C)c1cc(NC(=O)Nc2ccc(NC(=O)c3csc(Cc4cccc(C(F)(F)F)c4)n3)cc2)no1 [Compound N180],,+ + +,+ + + +,
COc1cccc(COc2ccc(NC(=O)Nc3cc(C(C)(C)C)on3)cc2)c1 [Compound G13],+ + + +,+ + + +,,
CC(C)(C)c1cc(NC(=O)Nc2ccc(NC(=O)c3cnc4cc(C(F)(F)F)ccc4c3O)cc2)no1 [Compound N146],+ + +,+ + +,,
Cc1cc(NC(=O)[C@](C)(O)CSc2ccc(F)cc2)ccc1NC(=O)Nc1cc(C(C)(C)C)on1 [Compound N170],,+ + +,+ + + +,
CC(C)(C)c1cc(NC(=O)Nc2ccc(NC(=O)c3csnn3)cc2)no1 [Compound N14],+ + + +,+ + +,,
CC(C)(C)c1cc(NC(=O)Nc2ccc(NC(=O)c3ccc(-n4cc(-c5ccncn5)cn4)cc3)cc2)no1 [Compound N76],,+ + +,+ + +,
CC(C)(C)c1cc(NC(=O)Nc2ccc(NC(=O)c3sccc3CCc3cccc(C(F)(F)F)c3)cc2)no1 [Compound N183],,+ +,+ + + +,
COc1ccc(-c2noc(-c3ccc(NC(=O)Nc4cc(C(C)(C)C)on4)cc3)n2)c2ccccc12 [Compound P3],+ + +,+ + +,,
Cc1ccc(NC(=O)c2ccc(NC(=O)Nc3cc(C(C)(C)C)on3)cc2)cc1 [Compound N84],+ + + +,+ + + +,,
CC(C)(C)c1cc(NC(=O)Nc2ccc(NC(=O)c3ncccc3C(N)=O)cc2)no1 [Compound N6],+ + +,+ +,,
CC(C)(C)c1cc(NC(=O)Nc2ccc(OCc3ccc4nonc4c3)cc2)no1 [Compound G55],+ + + +,+ + +,,
CC1CCCN(CCOc2ccc(NC(=O)Nc3cc(C(C)(C)C)on3)cc2)C1 (stereo not shown) [Compound G44],+ +,+ +,,
Cc1nnsc1C(=O)Nc1ccc(NC(=O)Nc2cc(C(C)(C)C)on2)cc1 [Compound N18],+ + +,+ +,,
CC(C)(C)c1cc(NC(=O)Nc2ccc(OCCc3ccc(F)cc3)cc2)no1 [Compound G24],+ + + +,+ + +,,
COc1cccc(-c2ccc(C(=O)Nc3ccc(NC(=O)Nc4cc(C(C)(C)C)on4)cc3)o2)c1 [Compound N105],+ + + +,+ + +,,
CCOC(=O)CCc1c(C)[nH]c(C(=O)Nc2ccc(NC(=O)Nc3cc(C(C)(C)C)on3)cc2)c1C [Compound N83],+ + + +,+ + +,,
Cc1nccn1CCOc1ccc(NC(=O)Nc2cc(C(C)(C)C)on2)cc1 [Compound G51],+ + + +,+ + +,,
CC(C)(C)c1cc(NC(=O)Nc2ccc(OCc3c(F)cccc3F)cc2)no1 [Compound G21],+ + + +,+ + + +,,
CC(C)(C)c1cc(NC(=O)Nc2ccc(NC(=O)c3cnn(-c4cccc(Cl)c4)c3Br)cc2)no1 [Compound N45],+ + + +,+ + +,,
Cc1cc(NC(=O)c2cn3nc(Cl)ccc3n2)ccc1NC(=O)Nc1cc(C(C)(C)C)on1 [Compound N169],,+ + +,+ + +,

Structure (SMILES),Binding Assay: FLT3(DKIN) (FLT3),"Cell Assay: CS0001:IC50 (MV4,11 cells)",Binding Assay: FLT3(JMminus) (FLT3),"IC50 (MV4,11 cells) [µM]"
O=C(c1cc2ccccc2[nH]1)c1cc2cc(O)ccc2[nH]1,+ + + +,+ + +,,
CC(C)(C)c1cc(NC(=O)Nc2ccc(NC(=O)c3cccc(Br)c3)cc2)no1 [Compound N24],+ + +,+ +,,
COc1cc(NC(=O)CCC(=O)N2CCNC(=O)CC2)ccc1NC(=O)Nc1cc(C(C)(C)C)on1 [Compound N172],,+ +,+ + +,
CC(C)(C)c1cc(NC(=O)Nc2ccc(NC(=O)c3nn(-c4cccc(C(F)(F)F)c4)c(=O)cc3O)cc2)no1 [Compound N185],,+ +,+ + +,
CC(C)(C)c1cc(NC(=O)Nc2ccc(OCc3ccc(OC(F)(F)F)cc3)cc2)no1 [Compound G5],+ + + +,+ + +,,
CC(C)Oc1ccc(NC(=O)Nc2cc(C(C)(C)C)no2)cc1 [Compound G33],+ + + +,+ + +,,
CC(C)(C)c1cc(NC(=O)Nc2ccc(NC(=O)C3CCNCC3)cc2)no1 [Compound N150],+ + +,,,> 10
CC(C)(C)c1cc(NC(=O)Nc2ccc(OCCN3CCC(O)CC3)cc2)no1 [Compound G48],+ + +,+ +,,
Cc1nc(N)cc(Nc2ccc(NC(=O)Nc3cc(C(C)(C)C)on3)cc2)n1 [Compound O10],+ + + +,+ + +,,
COc1cc(OC)nc(Oc2ccccc2C(=O)Nc2ccc(NC(=O)Nc3cc(C(C)(C)C)on3)cc2)n1 [Compound N70],,+ +,+ + +,
CC(C)(C)c1cc(NC(=O)Nc2ccc(NC(=O)c3c4ccccc4nc4ccccc34)cc2)no1 [Compound N148],+ + +,+ +,,
CC(C)(C)c1cc(NC(=O)Nc2ccc(NC(=O)c3nnsc3Sc3ccc(C(F)(F)F)cc3)cc2)no1 [Compound N179],,+ + +,+ + +,
CNC(=O)c1ccc(NC(=O)Nc2cc(C(C)(C)C)on2)cc1 [Compound N85],+ + + +,+ + +,,
COc1ccc(C(=O)c2c[nH]c(C(=O)Nc3ccc(NC(=O)Nc4cc(C(C)(C)C)on4)cc3)c2)cc1 [Compound N177],,+ +,+ + +,
COc1ccc(NC(=O)Nc2cc(C(C)(C)C)on2)cc1OC [Compound A55],,,+ +,> 10
Cc1[nH]c(C(=O)Nc2ccc(NC(=O)Nc3cc(C(C)(C)C)on3)cc2)c(C)c1CCC(=O)O [Compound N39],+ + + +,+ +,,
CC(C)(C)c1cc(NC(=O)Nc2ccc(NC(=O)c3ccc(OC(F)(F)F)cc3)cc2)no1 [Compound N30],+ +,+ +,,
CC(C)(C)c1cc(NC(=O)Nc2ccc(OCc3ccc(C(=O)c4ccccc4)cc3)cc2)no1 [Compound G9],+ + + +,+ + +,,
CC(C)(C)c1cc(NC(=O)Nc2ccc(NC(=O)c3cccc4nc5cc(O)cc(O)c5cc34)cc2)no1 [Compound N139],+ + +,+ + +,,
CC(C)(C)c1cc(NC(=O)Nc2ccc(NC(=O)CC(N)c3ccccc3Cl)cc2)no1 (stereo not shown) [Compound N44],+ +,+ +,,
